Experimental data taken from ChEMBL document CHEMBL1201862, “PubChem BioAssay data set” (2004).
Calls of active or inactive are those of the source.

Assays:
[1] = Luminescence Cell-Based Dose Retest to Confirm Inhibitors of Cancer Stem Cells. [Related pubchem assays (depositor defined):AID2717, AID2721]; assay type: functional; details: Homo sapiens
[2] = P. falciparum Dd2 growth inhibitors, dose response, SYBR Green, cherry-picked samples (AID 1159567); assay type: functional, cell-based
INS1 = assay: INS-1E survival protection against cytokine death – cell-based, luminescence, retest, dose response (AID 449756); assay type: functional; details: Rattus norvegicus;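 further: cell death triggered by IL-1 beta plus TNF-alpha plus IFN-gamma mixture; protective hits raise ATP signal compared with cytokine alone wells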
[3] = target: T1, Zinc finger protein mex-5 (Caenorhabditis elegans, UniProt Q9XUB2); assay: potency of MEX-5 RNA-binding blockers – biochemical, C. elegans, fluorescence polarization, dose response (AID 1960)
T1 sequence (Q9XUB2 whole entry): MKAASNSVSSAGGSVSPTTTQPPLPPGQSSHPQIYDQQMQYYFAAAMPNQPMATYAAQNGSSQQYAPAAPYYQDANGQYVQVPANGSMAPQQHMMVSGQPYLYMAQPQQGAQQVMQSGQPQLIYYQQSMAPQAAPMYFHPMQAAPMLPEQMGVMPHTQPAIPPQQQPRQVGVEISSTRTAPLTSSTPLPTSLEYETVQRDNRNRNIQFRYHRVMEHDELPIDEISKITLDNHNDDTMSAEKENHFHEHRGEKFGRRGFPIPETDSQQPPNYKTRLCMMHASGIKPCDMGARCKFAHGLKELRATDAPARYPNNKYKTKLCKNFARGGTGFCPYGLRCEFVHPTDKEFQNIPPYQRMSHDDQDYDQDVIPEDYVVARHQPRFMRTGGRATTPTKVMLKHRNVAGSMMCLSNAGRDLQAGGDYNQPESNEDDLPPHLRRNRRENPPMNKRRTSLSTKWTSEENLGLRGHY

[4] = target: T2, RNA-binding protein pos-1 (Caenorhabditis elegans, UniProt G5EF15); assay: disruptors of C. elegans POS-1 RNA interaction – biochemical, fluorescence polarization, dose response (AID 1964);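 further: purified POS-1 fused to maltose binding protein made in E. coli; potency of compounds blocking POS-1 binding to fluorescent RNA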
T2 sequence (G5EF15 whole entry): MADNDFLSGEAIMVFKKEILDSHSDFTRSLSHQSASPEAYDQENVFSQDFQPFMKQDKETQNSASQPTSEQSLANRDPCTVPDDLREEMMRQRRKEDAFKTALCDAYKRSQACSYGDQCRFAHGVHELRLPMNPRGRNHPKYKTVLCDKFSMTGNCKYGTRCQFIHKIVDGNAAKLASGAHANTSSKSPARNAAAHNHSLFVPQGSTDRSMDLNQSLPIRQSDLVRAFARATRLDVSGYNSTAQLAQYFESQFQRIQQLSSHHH

[5] = target: T3, Rac GTPase-activating protein 1 (Homo sapiens, UniProt Q9H0H5); assay: blockers of MgcRacGAP-driven Rac1 GTP hydrolysis – biochemical, ADP Hunter fluorescence, primary and confirmatory, confirmation (AID 624330); assay type: functional
T3 sequence (Q9H0H5 whole entry): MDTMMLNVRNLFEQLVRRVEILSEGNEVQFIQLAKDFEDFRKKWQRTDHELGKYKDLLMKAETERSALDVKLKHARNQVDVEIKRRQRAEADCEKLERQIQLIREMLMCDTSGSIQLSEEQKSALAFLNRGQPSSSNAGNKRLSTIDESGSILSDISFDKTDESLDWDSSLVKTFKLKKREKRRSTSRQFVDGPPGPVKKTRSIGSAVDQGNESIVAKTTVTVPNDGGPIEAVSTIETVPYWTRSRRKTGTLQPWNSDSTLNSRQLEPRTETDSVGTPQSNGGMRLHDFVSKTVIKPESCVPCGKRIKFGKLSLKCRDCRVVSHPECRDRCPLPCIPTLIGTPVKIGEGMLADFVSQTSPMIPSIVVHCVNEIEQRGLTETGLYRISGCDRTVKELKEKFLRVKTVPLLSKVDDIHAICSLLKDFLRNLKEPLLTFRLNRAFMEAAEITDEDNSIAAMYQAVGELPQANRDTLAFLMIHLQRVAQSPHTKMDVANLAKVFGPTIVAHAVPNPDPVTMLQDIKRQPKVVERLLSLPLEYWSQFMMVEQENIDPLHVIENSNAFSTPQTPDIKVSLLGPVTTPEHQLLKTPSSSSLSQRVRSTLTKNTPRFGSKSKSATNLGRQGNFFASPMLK

[6] = Luminescence Cell-Based Dose Confirmation HTS to Identify Inhibitors of Platelet Dense Granule Release. [Related pubchem assays: 1663 (Primary HTS), 1678 (Summary of Project)]; assay type: functional
[7] = target: Luciferin 4-monooxygenase (Photinus pyralis, UniProt P08659); assay: inhibition of purified Photinus pyralis luciferase – biochemical, luminescence, dose response (AID 1891)
Luciferin 4-monooxygenase, sequence (P08659 whole entry): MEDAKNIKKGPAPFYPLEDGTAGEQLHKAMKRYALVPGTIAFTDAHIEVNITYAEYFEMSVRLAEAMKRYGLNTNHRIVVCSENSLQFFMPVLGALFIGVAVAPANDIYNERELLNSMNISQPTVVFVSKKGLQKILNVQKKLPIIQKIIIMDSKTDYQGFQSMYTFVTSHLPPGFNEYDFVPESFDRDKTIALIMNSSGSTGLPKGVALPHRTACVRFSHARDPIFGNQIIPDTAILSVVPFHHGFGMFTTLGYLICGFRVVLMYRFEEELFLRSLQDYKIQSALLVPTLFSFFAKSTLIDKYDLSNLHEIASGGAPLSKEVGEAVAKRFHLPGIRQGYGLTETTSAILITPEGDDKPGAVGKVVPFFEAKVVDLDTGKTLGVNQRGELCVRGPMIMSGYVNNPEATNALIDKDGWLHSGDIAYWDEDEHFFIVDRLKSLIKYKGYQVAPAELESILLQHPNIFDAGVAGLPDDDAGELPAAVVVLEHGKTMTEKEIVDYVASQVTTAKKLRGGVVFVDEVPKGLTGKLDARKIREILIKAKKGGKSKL

Nonstructural protein 1 = Nonstructural protein 1 (Influenza A virus, UniProt Q194T2); assay type: functional, Influenza A virus (A/California/07/2009(H1N1))
Nonstructural protein 1, sequence (Q194T2 whole entry): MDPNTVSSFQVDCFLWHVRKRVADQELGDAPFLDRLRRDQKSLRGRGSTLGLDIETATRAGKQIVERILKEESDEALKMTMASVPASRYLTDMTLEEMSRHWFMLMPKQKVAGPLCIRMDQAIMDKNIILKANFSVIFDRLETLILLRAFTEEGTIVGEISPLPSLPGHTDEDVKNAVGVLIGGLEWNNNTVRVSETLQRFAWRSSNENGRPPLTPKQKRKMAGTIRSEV

[8] = viability of uninfected HEp-2 cells – cell-based, HTS, cytotoxicity control for RSV inhibitor project, dose response (AID 2410); assay type: functional; details: human respiratory syncytial virus
H4 = assay: Luminescence Cell-Based Dose Response HTS to Identify Activators of 5'UTR Stem-Loop Driven Prion Protein mRNA Translation in H4 Neuroglioblastoma Cells. [Related pubchem assays: 1829 (Project Summary), 1814 (Primary HTS)]; assay type: functional; details: Homo sapiens
Protein RecA = target: T4, Protein RecA (Mycobacterium tuberculosis, UniProt P9WHJ3); assay: Fluorescence Cell-Free Homogeneous Dose Retest to Identify Inhibitors of RecA-Intein Splicing Activity. [Related pubchem assays (depositor defined):AID2097, AID2223, AID489010, AID492950]; assay type: functional
T4 sequence (P9WHJ3 whole entry): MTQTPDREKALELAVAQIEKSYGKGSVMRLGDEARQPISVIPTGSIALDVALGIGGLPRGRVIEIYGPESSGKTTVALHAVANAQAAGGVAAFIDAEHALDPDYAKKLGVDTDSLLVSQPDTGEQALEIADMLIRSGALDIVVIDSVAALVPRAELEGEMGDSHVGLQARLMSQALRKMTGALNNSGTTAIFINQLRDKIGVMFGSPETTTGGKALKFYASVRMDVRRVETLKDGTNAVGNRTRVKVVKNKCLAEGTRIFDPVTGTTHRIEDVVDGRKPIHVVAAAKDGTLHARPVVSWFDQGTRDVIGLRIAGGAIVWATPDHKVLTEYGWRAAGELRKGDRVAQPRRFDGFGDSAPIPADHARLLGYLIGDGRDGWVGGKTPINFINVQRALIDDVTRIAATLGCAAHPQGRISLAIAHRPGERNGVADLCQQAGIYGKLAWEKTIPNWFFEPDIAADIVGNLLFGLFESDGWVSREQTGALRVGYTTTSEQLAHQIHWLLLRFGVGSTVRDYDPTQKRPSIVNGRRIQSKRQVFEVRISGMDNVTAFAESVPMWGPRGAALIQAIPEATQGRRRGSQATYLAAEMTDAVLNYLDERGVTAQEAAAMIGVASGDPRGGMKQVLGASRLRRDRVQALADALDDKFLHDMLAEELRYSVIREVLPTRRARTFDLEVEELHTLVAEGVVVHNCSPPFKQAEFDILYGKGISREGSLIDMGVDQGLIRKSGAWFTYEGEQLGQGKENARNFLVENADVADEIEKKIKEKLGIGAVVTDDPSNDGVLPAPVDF

[9] = target: T5, Replicative DNA helicase DnaB (Mycobacterium tuberculosis, UniProt P9WMR3); assay: DnaB intein splicing inhibitors, dose response, biochemical, cell-free fluorescence (AID 449749); assay type: functional
T5 sequence (P9WMR3 whole entry): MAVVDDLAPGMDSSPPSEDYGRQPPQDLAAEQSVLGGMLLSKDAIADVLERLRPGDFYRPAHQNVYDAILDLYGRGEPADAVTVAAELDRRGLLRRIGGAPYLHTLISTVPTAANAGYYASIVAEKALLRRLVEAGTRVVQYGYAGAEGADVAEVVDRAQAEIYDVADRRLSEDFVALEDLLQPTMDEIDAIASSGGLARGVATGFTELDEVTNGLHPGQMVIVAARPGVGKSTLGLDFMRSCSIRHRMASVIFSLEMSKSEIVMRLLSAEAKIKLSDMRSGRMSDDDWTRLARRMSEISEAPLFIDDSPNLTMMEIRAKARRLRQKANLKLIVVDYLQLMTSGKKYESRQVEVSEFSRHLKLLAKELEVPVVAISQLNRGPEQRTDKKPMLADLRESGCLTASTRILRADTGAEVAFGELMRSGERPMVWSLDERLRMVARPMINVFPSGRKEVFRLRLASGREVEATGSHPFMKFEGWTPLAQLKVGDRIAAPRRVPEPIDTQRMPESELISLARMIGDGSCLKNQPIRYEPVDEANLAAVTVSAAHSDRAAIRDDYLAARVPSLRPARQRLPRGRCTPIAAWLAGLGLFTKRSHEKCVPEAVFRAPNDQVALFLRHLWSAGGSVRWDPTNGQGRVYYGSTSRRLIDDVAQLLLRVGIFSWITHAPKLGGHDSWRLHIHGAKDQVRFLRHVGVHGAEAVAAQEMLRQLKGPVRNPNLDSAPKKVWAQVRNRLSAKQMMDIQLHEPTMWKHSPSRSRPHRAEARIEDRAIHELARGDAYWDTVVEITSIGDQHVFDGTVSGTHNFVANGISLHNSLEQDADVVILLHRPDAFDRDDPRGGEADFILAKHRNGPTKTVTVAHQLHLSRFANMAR

[10] = Trypanosoma cruzi growth suppression in host cells – NIH3T3 host cells, beta-gal luminescence, confirmation (AID 2044); assay type: functional, cell-based;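 further: intracellular parasites grown in NIH/3T3 mouse fibroblasts as host cells; luminescent beta-galactosidase reporter signal from transgenic T. cruzi replicating inside host cells; inhibitors lower the luminescence signal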
[11] = NIH3T3 cell viability loss – ATP luminescence, mouse fibroblasts, counter-screen, dose response (AID 2010); assay type: functional, cell-based;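 further: cells exposed to compound for about 90 hours before reading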
[12] = Luminescence Cell-Based Dose Response HTS to Identify Inhibitors of 5'UTR Stem-Loop Driven Prion Protein mRNA Translation in H4 Neuroglioblastoma Cells. [Related pubchem assays: 1827 (Project Summary), 1813 (Primary HTS)]; assay type: functional
[13] = alpha-synuclein stem-loop luciferase translation blockers – H4 neuroglioma cells, luminescence, confirmation (AID 1988); assay type: functional, cell-based
[14] = luciferase reporter signal suppression in cells – H4 neuroglioma cells, luminescence, dose response (AID 1990); assay type: functional, cell-based

SMILES: CCn1c2ccccc2c2cc(NC(=O)c3cccc([N+](=O)[O-])c3)ccc21
- AC50 [1]: 1.62 µM (active)

SMILES: CS(=O)(=O)N1[C@H](C#N)[C@H](c2ccccc2-c2ccccc2)[C@H]1CO
- AC50 [2]: > 36 µM (inactive)

SMILES: C=C1[C@@H](O)[C@@H]2O[C@]3(CC[C@H](/C=C/[C@@H](C)[C@@H]4CC(C)=CC5(O[C@H](C[C@@](C)(O)C(=O)OC)CC[C@H]5O)O4)O3)CC[C@H]2O[C@@H]1[C@@H](O)C[C@H](C)[C@H]1OC2(CCCCO2)CC[C@H]1C (some centres undefined)
- AC50 [1]: < 0.16 µM (inconclusive)
- AC50 (INS1): < 0.195 µM (active)

SMILES: Nc1ccc2c(c1)C/C(=C/c1ccco1)C2=O
- EC50 [3]: 14.3 µM (active)
- EC50 [4]: 23 µM (active)

SMILES: COc1ccc(NC2CCCN(C(=O)c3cc(C)nc4cc(F)ccc34)C2)cc1 (centres undefined)
- IC50 [5]: 120 µM (active)

SMILES: Cc1occc1C(=O)Nc1cc(C(C)(C)C)on1
- EC50 [6]: 3.46 µM (active)
- EC50 [7]: 2.78 µM (active)

SMILES: COc1cccc(-c2ccc([C@H]3[C@H](CO)N4CCCCN(CC5CC5)C[C@@H]34)cc2)c1
- AC50 [2]: 5.84 µM (active)

SMILES: C=CCN1C(=O)/C(=C/C=C2/N(CC)c3ccc(S(=O)(=O)N(C)C)cc3N2CC)SC1=S
- IC50 (Nonstructural protein 1): > 100 µM (active)

SMILES: Cc1ccnc(Nc2nc(-c3ccc(O)cc3O)cs2)c1
- AC50 [1]: 12.3 µM (active)
- CC50 [8]: 25.8 µM (active)

SMILES: CC(C(=O)N1CCCc2ccccc21)N1CCN(c2ccccn2)CC1 (centres undefined)
- IC50 [5]: 93.9 µM (active)

SMILES: O=C(N/N=C/c1sc(=O)n(-c2ccccc2)c1Cl)c1ccccc1
- EC50 (H4): 34.9 µM (inconclusive)

SMILES: COc1ccc(C2=NN(c3ccccc3)C(=O)/C2=C\c2ccc(O)c(OC)c2)cc1
- IC50 (Nonstructural protein 1): 42.4 µM (active)
- EC50 (Protein RecA): 1.42 µM (active)
- AC50 [9]: 2.29 µM (active)

SMILES: COc1ccc(-c2[nH]ncc2N=Nc2ccccc2)cc1
- AC50 [1]: 3.81 µM (active)

SMILES: Cc1ccccc1-c1ccc([C@H]2[C@H]3CNC[C@@H]2N3S(=O)(=O)c2cccc(F)c2)cc1
- AC50 [2]: 35.7 µM (active)

SMILES: CN1CC(=O)N(CC(=O)Nc2ccc(N(C)C)cc2)c2ccccc2C1=O
- IC50 [5]: 56.7 µM (active)

SMILES: COc1ccc(NC(=O)c2ccc(OC(F)F)cc2)cc1Cl
- EC50 [6]: 4.52 µM (active)
- EC50 [7]: 3.3 µM (active)

SMILES: Cc1ccc2oc(-c3ccc(NC(=O)c4cccnc4)cc3)nc2c1
- AC50 (INS1): 7.77 µM (active)
- EC50 [6]: > 112 µM (not active)
- EC50 [7]: > 112 µM (not active)

SMILES: COc1cccc(-c2ccc3c(c2)[C@H]2[C@H](CCN2C(=O)C2CCCC2)[C@H](CO)N3)c1
- AC50 [2]: 7.06 µM (active)

SMILES: Cc1cc(C(=O)N/N=C/c2cc(Br)cc(Br)c2OC(=O)c2cccc(F)c2)[nH]n1
- AC50 [1]: 3.46 µM (active)
- EC50 [10]: 1.01 µM (active)
- AC50 (INS1): 2.33 µM (active)
- EC50 [11]: > 60 µM (inconclusive)
- EC50 [12]: 8.33 µM (active)
- EC50 [13]: 7.49 µM (active)
- EC50 [14]: 8.5 µM (active)

SMILES: CCOC(=O)c1[nH]nc(-c2c(O)cc(C)cc2O)c1-c1csc(C)n1
- EC50 [6]: > 112 µM (not active)
- EC50 [7]: > 112 µM (not active)

SMILES: COc1ccccc1/C=N/Nc1nccnc1Cl
- EC50 [6]: 5.37 µM (active)
- EC50 [7]: 12.3 µM (active)

SMILES: COc1ccc(-n2c(Cc3cccn3C)nnc2SCC(=O)Nc2cccc(Cl)c2)cc1
- AC50 [1]: 125 µM (active)

SMILES: CCOC(=O)C1=C(C)NC(=O)NC1
- EC50 [6]: 5.87 µM (active)
- EC50 [7]: > 112 µM (not active)

SMILES: O=C(N/C(=C\c1ccc(O)cc1)C(=O)N1CCCCC1)c1ccccc1
- IC50 [5]: 47.3 µM (active)

SMILES: Cc1ccc(C(C)(C)C)cc1S(=O)(=O)N1CCC(C(=O)N2CCN(c3ccc(O)cc3)CC2)CC1
- IC50 [5]: 99.1 µM (active)

SMILES: CCC(=O)Nc1ccc2c(c1)OC[C@H](C)N(Cc1ccccn1)C[C@H](C)[C@H](OC)CN(C)C2=O
- AC50 [2]: 15.3 µM (active)
